Experimental data as given in publication PMC11212140, “Molecular Bidents with Two Electrophilic Warheads as a New Pharmacological Modality” (ACS Central Science, 2024).

Key:
MKK7 = molecular target: T1, MKK7 (Homo sapiens, UniProt O14733); test: MKK7 binding, KdELECT assays (DiscoverX); conditions: KdELECT
T1 construct: purchased DiscoverX
T1 sequence (O14733 1-419): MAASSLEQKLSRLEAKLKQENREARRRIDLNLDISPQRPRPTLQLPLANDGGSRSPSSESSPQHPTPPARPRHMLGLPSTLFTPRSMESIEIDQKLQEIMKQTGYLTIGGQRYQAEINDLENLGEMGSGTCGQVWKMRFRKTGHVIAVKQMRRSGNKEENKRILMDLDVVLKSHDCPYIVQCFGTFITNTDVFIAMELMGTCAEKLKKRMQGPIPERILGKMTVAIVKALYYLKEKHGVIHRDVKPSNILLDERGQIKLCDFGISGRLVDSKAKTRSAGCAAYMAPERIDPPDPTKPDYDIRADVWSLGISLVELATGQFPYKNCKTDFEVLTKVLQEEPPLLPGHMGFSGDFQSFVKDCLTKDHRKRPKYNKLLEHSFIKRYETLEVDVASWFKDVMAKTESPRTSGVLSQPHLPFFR
Source text: Figure 2 ZNL-8162 is a molecular bident for MKK7. (A) Compound structures for MKK7-targeting molecular bident (ZNL-8162) and its relatives lacking one or both cysteine-reactive groups. (B) Covalent modeling for ZNL-8162 engagement of MKK7(PDB: 6YG3). (C) MS/MS spectrum of ZNL-8162 covalently modifying Cys218 and Cys276 of MKK7. Red and yellow circles indicate ions of type y for sequences marked (1) and (2), respectively. Blue circles indicate ions of b for sequence (1). *, carbamidomethyl cysteine, Δ, oxidized methionine. (D) MKK7 binding data were obtained from KdELECT assays (DiscoverX). Data are presented as mean ± s.d. of n = 2 biologically independent samples.
Table S2. […]

EGFR = test system: T2, EGFR; test: Cellular target engagement assays (competitive pulldown); type: cell-based; conditions: EGFR^L858R Ba/F3 cells, 6 h pretreatment
T2 construct: expressed in transfected cells; host or cells: Ba/F3 (murine pro-B cells transduced with an EGFR mutant expression vector)
Method: Figure 4 ZNL-0056 covalently engages Cys775 and Cys797 in EGFR Ba/F3 cells. (A) Carton of competition EGFR pulldown strategy to test covalent EGFR engagement in cells. (B) Competitive pulldown assay in EGFR^L858R Ba/F3 cells treated with ZNL-0056 at the indicated concentrations for 6 h. Cell lysates were incubated with bio-osimertinib. (C) Competitive pulldown assay in EGFR^L858R Ba/F3 cells treated with ZNL-0056 at the indicated concentrations for 6 h. Cell lysates were incubated with bio-ZNL-0013, which competes for the binding pocket of the target kinase. (D) Competitive pulldown assay in EGFR^L858R/C797S Ba/F3 cells treated with ZNL-0056 at the indicated concentrations for 6 h. Cell lysates were incubated with bio-ZNL-0013, which competes for the binding pocket of the target kinase. Western blotting showing the pulldown (PD) or input (total lysate) of EGFR. […]
treatment. Cell viability was determined by using CellTiter-Glo (Promega #G7571) according to the manufacturer’s instructions, measuring luminescence using an Envision plate-reader (PerkinElmer Inc.). […]
After 6 hours treatment, cells were pelleted, washed with PBS once and lysed with IP lysis buffer (25mMTris-HCl pH 7.4, 150mM NaCl, 1 mM EDTA, 1% NP-40 and 5% glycerol) (Thermo Fisher Scientific, Cat#87788) containing protease/phosphatase inhibitor cocktail (Roche). The protein concentrations were measured by BCA analysis (Pierce). […]

BLK = BLK (Homo sapiens, UniProt P51451); test: Z'-LYTE biochemical assay; conditions: read-out: IC50 (nM) against BLK
BLK, sequence (P51451 whole entry): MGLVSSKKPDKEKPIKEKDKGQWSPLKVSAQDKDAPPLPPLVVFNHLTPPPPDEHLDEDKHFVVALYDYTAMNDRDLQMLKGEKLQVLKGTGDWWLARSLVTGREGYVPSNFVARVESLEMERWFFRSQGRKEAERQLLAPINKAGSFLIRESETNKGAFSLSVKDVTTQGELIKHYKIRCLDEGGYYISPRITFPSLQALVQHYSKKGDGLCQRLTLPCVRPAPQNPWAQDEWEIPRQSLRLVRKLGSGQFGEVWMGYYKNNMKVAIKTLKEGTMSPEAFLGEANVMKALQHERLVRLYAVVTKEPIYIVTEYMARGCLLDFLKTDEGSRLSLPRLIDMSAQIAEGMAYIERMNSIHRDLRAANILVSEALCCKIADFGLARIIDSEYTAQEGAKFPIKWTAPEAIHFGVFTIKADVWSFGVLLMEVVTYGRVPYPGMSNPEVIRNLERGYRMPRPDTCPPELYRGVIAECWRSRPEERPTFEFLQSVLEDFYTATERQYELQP
Source text: (§1) Table S2. Biochemical activities against a panel of kinase targets […]
(§2) aIC50 (nM) against EGFR L858R, BTK, JAK3, ITK and BLK were obtained with Z’-LYTE biochemical assay. bIC50 (nM) against MEK5 was obtained with LanthaScreen Binding activity assay. c Kd (nM) of MKK7 were obtained from KdELECT assays (DiscoverX). […]
(§3) (1 picture or pasted object on this page, not shown here)

BTK = BTK (Homo sapiens, UniProt Q06187); test: Z'-LYTE biochemical assay; conditions: read-out: IC50 (nM) against BTK
BTK, sequence (Q06187 whole entry): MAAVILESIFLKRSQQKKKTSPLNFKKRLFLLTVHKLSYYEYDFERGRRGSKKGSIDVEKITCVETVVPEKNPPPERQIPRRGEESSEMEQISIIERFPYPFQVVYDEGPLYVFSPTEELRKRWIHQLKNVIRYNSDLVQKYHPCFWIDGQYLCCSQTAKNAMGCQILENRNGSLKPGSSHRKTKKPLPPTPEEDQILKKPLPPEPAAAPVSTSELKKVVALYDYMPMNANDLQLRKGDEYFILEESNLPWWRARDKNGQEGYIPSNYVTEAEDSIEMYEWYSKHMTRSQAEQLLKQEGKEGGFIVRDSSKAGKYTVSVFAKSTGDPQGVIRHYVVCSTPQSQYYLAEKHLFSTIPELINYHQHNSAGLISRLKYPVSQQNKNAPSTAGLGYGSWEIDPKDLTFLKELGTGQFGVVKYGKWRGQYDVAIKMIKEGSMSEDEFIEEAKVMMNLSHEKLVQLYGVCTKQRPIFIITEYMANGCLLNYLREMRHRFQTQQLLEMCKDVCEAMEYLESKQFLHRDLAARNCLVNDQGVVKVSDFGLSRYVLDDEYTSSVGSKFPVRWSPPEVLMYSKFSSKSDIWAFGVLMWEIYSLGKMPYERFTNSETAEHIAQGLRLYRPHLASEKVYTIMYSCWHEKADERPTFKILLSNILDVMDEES
Source text: as §1, §2, §3

EGFR L858R = EGFR L858R (Homo sapiens, UniProt P00533, L858R); test: Z'-LYTE biochemical assay; conditions: read-out: IC50 (nM) against EGFR L858R
EGFR L858R, sequence (P00533 25-1210 L858R): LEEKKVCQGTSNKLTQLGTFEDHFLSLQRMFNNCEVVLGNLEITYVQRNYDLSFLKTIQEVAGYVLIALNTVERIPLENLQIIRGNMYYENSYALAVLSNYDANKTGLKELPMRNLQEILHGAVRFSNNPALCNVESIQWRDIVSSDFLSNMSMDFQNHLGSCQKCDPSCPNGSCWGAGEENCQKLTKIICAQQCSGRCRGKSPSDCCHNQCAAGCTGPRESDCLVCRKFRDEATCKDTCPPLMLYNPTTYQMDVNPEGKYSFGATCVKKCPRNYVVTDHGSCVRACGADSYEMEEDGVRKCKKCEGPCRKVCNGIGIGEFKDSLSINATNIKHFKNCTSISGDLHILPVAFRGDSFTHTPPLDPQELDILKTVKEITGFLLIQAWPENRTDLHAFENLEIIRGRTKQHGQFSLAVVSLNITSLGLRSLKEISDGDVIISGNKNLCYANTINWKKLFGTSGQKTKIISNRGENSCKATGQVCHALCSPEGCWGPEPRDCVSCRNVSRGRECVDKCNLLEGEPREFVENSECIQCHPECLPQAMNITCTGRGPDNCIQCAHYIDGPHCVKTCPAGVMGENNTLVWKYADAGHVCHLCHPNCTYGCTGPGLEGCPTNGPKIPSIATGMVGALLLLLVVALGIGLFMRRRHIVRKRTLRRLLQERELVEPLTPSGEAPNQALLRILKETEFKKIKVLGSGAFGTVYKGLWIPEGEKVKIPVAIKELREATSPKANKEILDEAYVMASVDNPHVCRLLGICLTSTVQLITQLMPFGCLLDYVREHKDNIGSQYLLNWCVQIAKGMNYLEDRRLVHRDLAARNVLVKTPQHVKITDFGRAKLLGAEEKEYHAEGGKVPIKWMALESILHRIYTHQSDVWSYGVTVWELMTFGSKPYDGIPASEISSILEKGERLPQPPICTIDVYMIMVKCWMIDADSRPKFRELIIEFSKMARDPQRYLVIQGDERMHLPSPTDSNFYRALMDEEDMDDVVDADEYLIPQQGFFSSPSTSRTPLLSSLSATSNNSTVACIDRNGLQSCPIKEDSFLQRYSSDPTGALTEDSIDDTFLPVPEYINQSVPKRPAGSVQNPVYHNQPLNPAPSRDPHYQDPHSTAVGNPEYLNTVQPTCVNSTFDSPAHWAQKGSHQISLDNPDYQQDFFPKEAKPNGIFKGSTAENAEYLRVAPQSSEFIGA
Source text: as §1, §2, §3

ITK = ITK (Homo sapiens, UniProt Q08881); test: Z'-LYTE biochemical assay; conditions: read-out: IC50 (nM) against ITK
ITK, sequence (Q08881 whole entry): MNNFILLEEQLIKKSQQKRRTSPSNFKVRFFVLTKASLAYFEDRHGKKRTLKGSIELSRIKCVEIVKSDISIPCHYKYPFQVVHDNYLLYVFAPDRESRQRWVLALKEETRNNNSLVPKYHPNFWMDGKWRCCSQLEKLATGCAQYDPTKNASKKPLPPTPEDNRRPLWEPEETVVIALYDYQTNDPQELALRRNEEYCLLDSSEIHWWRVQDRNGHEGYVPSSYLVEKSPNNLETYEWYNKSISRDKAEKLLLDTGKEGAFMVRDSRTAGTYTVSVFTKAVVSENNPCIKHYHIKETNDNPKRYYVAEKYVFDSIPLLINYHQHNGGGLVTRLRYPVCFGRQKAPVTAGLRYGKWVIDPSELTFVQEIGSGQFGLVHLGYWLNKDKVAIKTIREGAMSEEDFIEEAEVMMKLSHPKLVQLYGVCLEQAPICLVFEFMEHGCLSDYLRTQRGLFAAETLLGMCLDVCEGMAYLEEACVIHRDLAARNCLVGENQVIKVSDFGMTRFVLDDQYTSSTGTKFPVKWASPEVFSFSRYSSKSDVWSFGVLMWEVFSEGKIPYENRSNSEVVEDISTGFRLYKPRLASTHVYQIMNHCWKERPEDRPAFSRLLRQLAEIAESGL
Source text: as §1, §2, §3

JAK3 = JAK3 (Homo sapiens, UniProt P52333); test: Z'-LYTE biochemical assay; conditions: read-out: IC50 (nM) against JAK3
JAK3, sequence (P52333 whole entry): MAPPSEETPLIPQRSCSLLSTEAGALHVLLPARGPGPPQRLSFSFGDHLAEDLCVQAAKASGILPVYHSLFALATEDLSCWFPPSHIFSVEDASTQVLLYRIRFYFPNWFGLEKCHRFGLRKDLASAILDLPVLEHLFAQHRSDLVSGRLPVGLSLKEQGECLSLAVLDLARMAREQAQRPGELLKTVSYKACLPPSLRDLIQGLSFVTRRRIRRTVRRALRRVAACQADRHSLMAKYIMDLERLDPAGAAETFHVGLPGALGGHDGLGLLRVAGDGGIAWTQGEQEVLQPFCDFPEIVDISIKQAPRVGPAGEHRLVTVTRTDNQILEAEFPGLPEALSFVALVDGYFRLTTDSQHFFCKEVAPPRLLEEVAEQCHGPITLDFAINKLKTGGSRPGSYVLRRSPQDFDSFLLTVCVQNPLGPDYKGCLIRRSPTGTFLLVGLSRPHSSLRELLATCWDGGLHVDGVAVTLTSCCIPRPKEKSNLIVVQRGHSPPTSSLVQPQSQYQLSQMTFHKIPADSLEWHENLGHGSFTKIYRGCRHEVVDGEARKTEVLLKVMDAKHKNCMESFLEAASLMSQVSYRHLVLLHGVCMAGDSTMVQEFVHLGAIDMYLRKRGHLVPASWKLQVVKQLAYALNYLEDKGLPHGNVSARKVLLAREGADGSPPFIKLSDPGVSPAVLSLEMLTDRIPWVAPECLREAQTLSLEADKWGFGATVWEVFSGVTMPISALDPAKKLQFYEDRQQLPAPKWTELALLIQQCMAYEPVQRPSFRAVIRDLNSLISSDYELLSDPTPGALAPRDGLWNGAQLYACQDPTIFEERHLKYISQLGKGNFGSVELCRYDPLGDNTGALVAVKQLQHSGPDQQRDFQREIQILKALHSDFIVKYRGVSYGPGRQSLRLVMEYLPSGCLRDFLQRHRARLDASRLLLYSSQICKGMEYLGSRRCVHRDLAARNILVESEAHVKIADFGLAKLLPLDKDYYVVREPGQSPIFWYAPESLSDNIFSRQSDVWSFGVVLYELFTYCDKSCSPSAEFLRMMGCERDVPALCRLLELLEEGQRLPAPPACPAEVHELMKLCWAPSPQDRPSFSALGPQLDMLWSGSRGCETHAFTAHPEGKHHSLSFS
Source text: as §1, §2, §3

**Q.** For C=CC(=O)Nc1cc(C(=O)Nc2nc3cccc(C)c3n2[C@@H]2CCCCN(C(=O)C=C)C2)cs1 [ZNL-0056], which Kd (MKK7) is on record?
**A.** 36 nM

**Q.** What about the “prevention of EGFR binding to osimertinib-biotin target-engagement probe” value (EGFR) of the same compound?
**A.** dose-dependent manner

**Q.** And the IC50 (BLK)?
**A.** 3.17 nM

**Q.** And the IC50 (BTK)?
**A.** 1.13 nM

**Q.** And the IC50 (EGFR L858R)?
**A.** 6.21 nM

**Q.** And the IC50 (ITK)?
**A.** 7.81 nM

**Q.** And the IC50 (JAK3)?
**A.** 5.79 nM
